The values that follow come from ChEMBL document CHEMBL1146455, “New geranyl stilbenes from Dalea purpurea with in vitro opioid receptor affinity” (J Nat Prod, 2004).

SMILES strings stand for the structures.

Usually Ki stands for a measure of affinity in units of concentration, obtained from inhibition or displacement.

This experiment can be described thus: Displacement of [3H]naloxone from opioid receptor in Sprague-Dawley rat striatal membrane by scintillation spectrophotometry. Set-up: species or system Striatum. For orientation: In a radioligand displacement assay an active substance lowers the binding of a labelled ligand.
As for `CC(C)=CCC/C(C)=C/Cc1c(O)cc(O)cc1/C=C/c1ccc(O)c(O)c1CC=C(C)C` [PAWHUSKIN A], the affinity, expressed as Ki, was 0.29 µM. Then `CC(C)=CCCC1(C)C=Cc2c(O)cc(/C=C/c3ccc(O)c(O)c3)cc2O1` (centres undefined) [PAWHUSKIN B], with 11.4 µM; and `CC(C)=CCC/C(C)=C/Cc1c(O)cc(/C=C/c2ccc(O)c(O)c2)cc1O` [PAWHUSKIN C], with 4.2 µM; and `CC(C)=CCc1cc(O)c(O)c(CC=C(C)C)c1[C@H]1Oc2c(CC=C(C)C)c(O)cc(O)c2C(=O)[C@@H]1O` [PETALOSTEMUMOL], with more than 100 µM.
